From publication PMC10590056, “Design and synthesis of cabotegravir derivatives bearing 1,2,3-triazole and evaluation of anti-liver cancer activity” (Frontiers in Pharmacology, 2023) come the findings set out here.

“And” between values parts separate entries of the source, which are not always exact repeats. Equal values may be shown once.

One test has as its system MCF-7 cells. Briefly: MTT assay for cell proliferation, MCF-7. Particulars: MCF-7; fraction, per experiment. The arrangement: key to Inhibitory rate / Inhibition rate: inhibition rate = 1 - mean A490 sample/mean A490 control (fraction). Format: cell-based. The procedure: (§1) HepG2, HeLa, MCF-7, and KYSE-30 cells were grown in a humidified incubator at 37°C with 5% CO2 in DMEM supplemented with 10% fetal bovine serum (FBS), […] streptomycin, and 100 U/mL penicillin.
(§2) When HepG2 cells reached 80% confluence, they were treated with 1 mL of trypsin and resuspended at a density of 10^5 cells/mL. Then, 100 μL of cell suspension was seeded into each well of a 96-well plate and incubated in a humidified atmosphere. The different concentrations of KJ-5 and KJ-12 (0, 1, 2, 4, 8, 16, and 32 μM) were added to each well, and the cells were further incubated for 48 h. Afterward, 20 μL of the MTT solution (5 mg/mL) was added to each well, and incubation was continued for another 4 h. The supernatant was discarded, and 200 μL of the DMSO solution was added to each well. The plate was shaken for 10 min in the dark. The absorbance values were measured at 490 nm using an enzyme-linked detector. The cell inhibition rate (%) was calculated using the following formula: (1-Mean A490 sample/Mean A490 control) × 100%.
The molecule `COc1c2n(cc(C(=O)Nc3cccc(-c4cn(-c5ccc(C(F)(F)F)cc5)nn4)c3)c1=O)C[C@H]1OC[C@H](C)N1C2=O` [KJ-10] registered an Inhibitory rate of 0.366 and an ODtreated/ODcontrol of 0.634.

In the case of `CCc1ccccc1-n1cc(-c2cccc(NC(=O)c3cn4c(c(OC)c3=O)C(=O)N3[C@@H](C)CO[C@@H]3C4)c2)nn1` [KJ-4], the Inhibitory rate was 0.4901 and the ODtreated/ODcontrol is 0.5099.

The test is the same for the next values; noted with them: given as fraction; second of three experiments.
Regarding `COc1c2n(cc(C(=O)Nc3cccc(-c4cn(-c5ccc(C(F)(F)F)cc5)nn4)c3)c1=O)C[C@H]1OC[C@H](C)N1C2=O` [KJ-10], the Inhibitory rate is listed as 0.3141.

`CCc1ccccc1-n1cc(-c2cccc(NC(=O)c3cn4c(c(OC)c3=O)C(=O)N3[C@@H](C)CO[C@@H]3C4)c2)nn1` [KJ-4] came in with an Inhibitory rate of 0.5179.

The test is the same for the next values; noted with them: given as fraction; third of three experiments.
`COc1c2n(cc(C(=O)Nc3cccc(-c4cn(-c5ccc(C(F)(F)F)cc5)nn4)c3)c1=O)C[C@H]1OC[C@H](C)N1C2=O` [KJ-10] gave an Inhibition rate of 0.2908.

Turning to `CCc1ccccc1-n1cc(-c2cccc(NC(=O)c3cn4c(c(OC)c3=O)C(=O)N3[C@@H](C)CO[C@@H]3C4)c2)nn1` [KJ-4], the Inhibition rate was 0.4059.

The test is the same for the next values; noted with them: preliminary screening, MCF-7, 16 μM, 48 h, mean±SD; unit not given.
Turning to `COc1c2n(cc(C(=O)Nc3cccc(-c4cn(-c5ccc(C(F)(F)F)cc5)nn4)c3)c1=O)C[C@H]1OC[C@H](C)N1C2=O` [KJ-10], the “Inhibition rate (16μM), 48 h, MCF-7” value is recorded as 33.36±3.87.

For the molecule `CCc1ccccc1-n1cc(-c2cccc(NC(=O)c3cn4c(c(OC)c3=O)C(=O)N3[C@@H](C)CO[C@@H]3C4)c2)nn1` [KJ-4], the “Inhibition rate (16μM), 48 h, MCF-7” value was 47.13±5.83.

The test is the same for the next values; noted with them: second of three experiments.
`COc1c2n(cc(C(=O)Nc3cccc(-c4cn(-c5ccc(C(F)(F)F)cc5)nn4)c3)c1=O)C[C@H]1OC[C@H](C)N1C2=O` [KJ-10] returned an ODtreated/ODcontrol of 0.6859.

Molecule `CCc1ccccc1-n1cc(-c2cccc(NC(=O)c3cn4c(c(OC)c3=O)C(=O)N3[C@@H](C)CO[C@@H]3C4)c2)nn1` [KJ-4] gave an ODtreated/ODcontrol of 0.4821.

The test is the same for the next values; noted with them: third of three experiments.
Consider `COc1c2n(cc(C(=O)Nc3cccc(-c4cn(-c5ccc(C(F)(F)F)cc5)nn4)c3)c1=O)C[C@H]1OC[C@H](C)N1C2=O` [KJ-10], for which the ODtreated/ODcontrol worked out at 0.7092.

As for `CCc1ccccc1-n1cc(-c2cccc(NC(=O)c3cn4c(c(OC)c3=O)C(=O)N3[C@@H](C)CO[C@@H]3C4)c2)nn1` [KJ-4], the ODtreated/ODcontrol is listed as 0.5941.

The next test has as its system HepG2 cells. The test can be described thus: MTT assay for cell proliferation and cytotoxicity, HepG2. Format: cell-based. Details: key to Inhibitory rate: inhibition rate = 1 - mean A490 sample/mean A490 control (fraction). Particulars: HepG2, 48 h, MTT. The procedure:
as §1, §2
The molecule `COc1c2n(cc(C(=O)Nc3cccc(-c4cn(-c5ccc(C(F)(F)F)cc5)nn4)c3)c1=O)C[C@H]1OC[C@H](C)N1C2=O` [KJ-10] came in with an IC50 greater than 50 µM.

In the case of `CCc1ccccc1-n1cc(-c2cccc(NC(=O)c3cn4c(c(OC)c3=O)C(=O)N3[C@@H](C)CO[C@@H]3C4)c2)nn1` [KJ-4], the IC50 was found to be 15.1 ± 0.28 µM.

The test is the same for the next values; noted with them: HepG2; fraction, per experiment.
On to `COc1c2n(cc(C(=O)Nc3cccc(-c4cn(-c5ccc(C(F)(F)F)cc5)nn4)c3)c1=O)C[C@H]1OC[C@H](C)N1C2=O` [KJ-10], for which the Inhibitory rate was 0.3299 and 0.3414 and 0.3063; the ODtreated/ODcontrol was 0.6701 and 0.6586 and 0.6937.

Take `CCc1ccccc1-n1cc(-c2cccc(NC(=O)c3cn4c(c(OC)c3=O)C(=O)N3[C@@H](C)CO[C@@H]3C4)c2)nn1` [KJ-4]: the Inhibitory rate was 0.5128 and 0.512 and 0.5016; the ODtreated/ODcontrol is 0.4872 and 0.488 and 0.4984.

The same test, now with this note: preliminary screening, HepG2, 16 μM, 48 h, mean±SD; unit not given.
As to `COc1c2n(cc(C(=O)Nc3cccc(-c4cn(-c5ccc(C(F)(F)F)cc5)nn4)c3)c1=O)C[C@H]1OC[C@H](C)N1C2=O` [KJ-10], the “Inhibition rate (16μM), 48 h, HepG2” value was found to be 32.59±1.79.

With `CCc1ccccc1-n1cc(-c2cccc(NC(=O)c3cn4c(c(OC)c3=O)C(=O)N3[C@@H](C)CO[C@@H]3C4)c2)nn1` [KJ-4], the “Inhibition rate (16μM), 48 h, HepG2” value turned out to be 50.88±0.63.

Another test concerns KYSE-30 cells. The test can be described thus: MTT assay for cell proliferation, KYSE-30. Details: key to Inhibitory rate: inhibition rate = 1 - mean A490 sample/mean A490 control (fraction). Particulars: KYSE-30, first of three experiments. Format: cell-based. The procedure:
as §1, §2
As to `COc1c2n(cc(C(=O)Nc3cccc(-c4cn(-c5ccc(C(F)(F)F)cc5)nn4)c3)c1=O)C[C@H]1OC[C@H](C)N1C2=O` [KJ-10], the ODtreated/ODcontrol is recorded as 0.6507.

In the case of `CCc1ccccc1-n1cc(-c2cccc(NC(=O)c3cn4c(c(OC)c3=O)C(=O)N3[C@@H](C)CO[C@@H]3C4)c2)nn1` [KJ-4], the ODtreated/ODcontrol is 0.492.

Still in this test, the particulars now being: KYSE-30, given as fraction; first of three experiments.
Take `COc1c2n(cc(C(=O)Nc3cccc(-c4cn(-c5ccc(C(F)(F)F)cc5)nn4)c3)c1=O)C[C@H]1OC[C@H](C)N1C2=O` [KJ-10]: the Inhibitory rate is recorded as 0.3493.

With `CCc1ccccc1-n1cc(-c2cccc(NC(=O)c3cn4c(c(OC)c3=O)C(=O)N3[C@@H](C)CO[C@@H]3C4)c2)nn1` [KJ-4], the Inhibitory rate worked out at 0.508.

Still in this test, the particulars now being: KYSE-30, given as fraction; second of three experiments.
In turn, `COc1c2n(cc(C(=O)Nc3cccc(-c4cn(-c5ccc(C(F)(F)F)cc5)nn4)c3)c1=O)C[C@H]1OC[C@H](C)N1C2=O` [KJ-10] came in with an Inhibitory rate of 0.2142.

For `CCc1ccccc1-n1cc(-c2cccc(NC(=O)c3cn4c(c(OC)c3=O)C(=O)N3[C@@H](C)CO[C@@H]3C4)c2)nn1` [KJ-4], the Inhibitory rate was 0.3924.

Still in this test, the particulars now being: KYSE-30, given as fraction; third of three experiments.
Molecule `COc1c2n(cc(C(=O)Nc3cccc(-c4cn(-c5ccc(C(F)(F)F)cc5)nn4)c3)c1=O)C[C@H]1OC[C@H](C)N1C2=O` [KJ-10] displayed an Inhibitory rate of 0.2217.

With `CCc1ccccc1-n1cc(-c2cccc(NC(=O)c3cn4c(c(OC)c3=O)C(=O)N3[C@@H](C)CO[C@@H]3C4)c2)nn1` [KJ-4], the Inhibitory rate came to 0.4136.

Still in this test, the particulars now being: KYSE-30, second of three experiments.
Take `COc1c2n(cc(C(=O)Nc3cccc(-c4cn(-c5ccc(C(F)(F)F)cc5)nn4)c3)c1=O)C[C@H]1OC[C@H](C)N1C2=O` [KJ-10]: the ODtreated/ODcontrol is on record as 0.7858.

`CCc1ccccc1-n1cc(-c2cccc(NC(=O)c3cn4c(c(OC)c3=O)C(=O)N3[C@@H](C)CO[C@@H]3C4)c2)nn1` [KJ-4] came in with an ODtreated/ODcontrol of 0.6076.

The test is the same for the next values; noted with them: KYSE-30, third of three experiments.
In turn, `COc1c2n(cc(C(=O)Nc3cccc(-c4cn(-c5ccc(C(F)(F)F)cc5)nn4)c3)c1=O)C[C@H]1OC[C@H](C)N1C2=O` [KJ-10] yielded an ODtreated/ODcontrol of 0.7783.

Regarding `CCc1ccccc1-n1cc(-c2cccc(NC(=O)c3cn4c(c(OC)c3=O)C(=O)N3[C@@H](C)CO[C@@H]3C4)c2)nn1` [KJ-4], the ODtreated/ODcontrol came out at 0.5864.

The same test, now with this note: preliminary screening, KYSE-30, 16 μM, 48 h, mean±SD; unit not given.
Consider `COc1c2n(cc(C(=O)Nc3cccc(-c4cn(-c5ccc(C(F)(F)F)cc5)nn4)c3)c1=O)C[C@H]1OC[C@H](C)N1C2=O` [KJ-10], for which the “Inhibition rate (16μM), 48 h, KYSE-30” value was 26.17±7.59.

In the case of `CCc1ccccc1-n1cc(-c2cccc(NC(=O)c3cn4c(c(OC)c3=O)C(=O)N3[C@@H](C)CO[C@@H]3C4)c2)nn1` [KJ-4], the “Inhibition rate (16μM), 48 h, KYSE-30” value was found to be 43.8±6.15.

The test system of the next test is HeLa cells. Briefly: MTT assay for cell proliferation, HeLa. The arrangement: key to Inhibitory rate: inhibition rate = 1 - mean A490 sample/mean A490 control (fraction). It counts as cell-based. Particulars: Hela; fraction, per experiment. The procedure:
as §1, §2
`COc1c2n(cc(C(=O)Nc3cccc(-c4cn(-c5ccc(C(F)(F)F)cc5)nn4)c3)c1=O)C[C@H]1OC[C@H](C)N1C2=O` [KJ-10]: the Inhibitory rate was 0.353 and 0.3445 and 0.3223; the ODtreated/ODcontrol was 0.647 and 0.6555 and 0.6777.

In the case of `CCc1ccccc1-n1cc(-c2cccc(NC(=O)c3cn4c(c(OC)c3=O)C(=O)N3[C@@H](C)CO[C@@H]3C4)c2)nn1` [KJ-4], the Inhibitory rate was 0.4763 and 0.5136 and 0.3886; the ODtreated/ODcontrol is 0.5237 and 0.4864 and 0.6114.

Still in this test, the particulars now being: preliminary screening, Hela, 16 μM, 48 h, mean±SD; unit not given.
`COc1c2n(cc(C(=O)Nc3cccc(-c4cn(-c5ccc(C(F)(F)F)cc5)nn4)c3)c1=O)C[C@H]1OC[C@H](C)N1C2=O` [KJ-10]: the “Inhibition rate (16μM), 48 h, Hela” value worked out at 33.99±1.59.

For the molecule `CCc1ccccc1-n1cc(-c2cccc(NC(=O)c3cn4c(c(OC)c3=O)C(=O)N3[C@@H](C)CO[C@@H]3C4)c2)nn1` [KJ-4], the “Inhibition rate (16μM), 48 h, Hela” value came to 45.95±6.42.
